Data: ChEMBL document CHEMBL3751678, “Stabilizing G-quadruplex DNA by methylazacalix[n]pyridine through shape-complementary interaction” (Bioorg Med Chem Lett, 2016)

Assays:
[1] = Stabilization of TBA G-quadruplex DNA (unknown origin) assessed as change in melting temparature by circular dichroism analysis
Homo sapiens [2] = species on record: Homo sapiens; assay: Stabilization of human H12 G-quadruplex DNA assessed as change in melting temparature by circular dichroism analysis
Homo sapiens [3] = species on record: Homo sapiens; assay: Stabilization of human T12 G-quadruplex DNA assessed as change in melting temparature by circular dichroism analysis
[4] = Stabilization of c-kit G-quadruplex DNA (unknown origin) assessed as change in melting temparature by circular dichroism analysis
[5] = Stabilization of Bcl2 G-quadruplex DNA (unknown origin) assessed as change in melting temparature by circular dichroism analysis

ΔTm [1] [°C] | ΔTm (Homo sapiens [2]) [°C] | ΔTm (Homo sapiens [3]) [°C] | ΔTm [4] [°C] | ΔTm [5] [°C] | Compound
0 | 0 | 0 | 0 | 0 | CN1c2cccc(n2)N(C)c2cccc(n2)N(C)c2cccc(n2)N(C)c2cccc(n2)N(C)c2cccc(n2)N(C)c2cccc(n2)N(C)c2cccc1n2
0 | 0 | 0 | 0 | 0 | CN1c2cccc(n2)N(C)c2cccc(n2)N(C)c2cccc(n2)N(C)c2cccc(n2)N(C)c2cccc(n2)N(C)c2cccc(n2)N(C)c2cccc(n2)N(C)c2cccc1n2
0 | 0 | 0 | 0 | 0 | CN1c2cccc(n2)N(C)c2cccc(n2)N(C)c2cccc(n2)N(C)c2cccc1n2
0 | 0 | 0 | 0 | 0 | CN1c2cccc(n2)N(C)c2cccc(n2)N(C)c2cccc(n2)N(C)c2cccc(n2)N(C)c2cccc(n2)N(C)c2cccc(n2)N(C)c2cccc(n2)N(C)c2cccc(n2)N(C)c2cccc1n2
0 | 7 | 4 | 0 | 0 | Cn1c2cccc(n2)n(C)c2cccc(n2)n(C)c2cccc(n2)n(C)c2cccc(n2)n(C)c2cccc(n2)n(C)c2cccc1n2
